{
  "source": "patent US9814761B2",
  "about": "“Compositions, methods and assays comprising amylin or amlyin analogs for abeta-peptide mediated disorders” (TRUSTEES OF BOSTON UNIVERSITY, priority 2012, dated 2017)",
  "key": {"[1]": {"target": "T1, IDE (insulin degrading enzyme) (Mus musculus, UniProt Q9JHR7)", "T1 construct": "endogenous in cells; host or cells: Tg2576 (APP transgenic) mice, whole animal, i.p. dosing", "T1 sequence (Q9JHR7 1-1019)": "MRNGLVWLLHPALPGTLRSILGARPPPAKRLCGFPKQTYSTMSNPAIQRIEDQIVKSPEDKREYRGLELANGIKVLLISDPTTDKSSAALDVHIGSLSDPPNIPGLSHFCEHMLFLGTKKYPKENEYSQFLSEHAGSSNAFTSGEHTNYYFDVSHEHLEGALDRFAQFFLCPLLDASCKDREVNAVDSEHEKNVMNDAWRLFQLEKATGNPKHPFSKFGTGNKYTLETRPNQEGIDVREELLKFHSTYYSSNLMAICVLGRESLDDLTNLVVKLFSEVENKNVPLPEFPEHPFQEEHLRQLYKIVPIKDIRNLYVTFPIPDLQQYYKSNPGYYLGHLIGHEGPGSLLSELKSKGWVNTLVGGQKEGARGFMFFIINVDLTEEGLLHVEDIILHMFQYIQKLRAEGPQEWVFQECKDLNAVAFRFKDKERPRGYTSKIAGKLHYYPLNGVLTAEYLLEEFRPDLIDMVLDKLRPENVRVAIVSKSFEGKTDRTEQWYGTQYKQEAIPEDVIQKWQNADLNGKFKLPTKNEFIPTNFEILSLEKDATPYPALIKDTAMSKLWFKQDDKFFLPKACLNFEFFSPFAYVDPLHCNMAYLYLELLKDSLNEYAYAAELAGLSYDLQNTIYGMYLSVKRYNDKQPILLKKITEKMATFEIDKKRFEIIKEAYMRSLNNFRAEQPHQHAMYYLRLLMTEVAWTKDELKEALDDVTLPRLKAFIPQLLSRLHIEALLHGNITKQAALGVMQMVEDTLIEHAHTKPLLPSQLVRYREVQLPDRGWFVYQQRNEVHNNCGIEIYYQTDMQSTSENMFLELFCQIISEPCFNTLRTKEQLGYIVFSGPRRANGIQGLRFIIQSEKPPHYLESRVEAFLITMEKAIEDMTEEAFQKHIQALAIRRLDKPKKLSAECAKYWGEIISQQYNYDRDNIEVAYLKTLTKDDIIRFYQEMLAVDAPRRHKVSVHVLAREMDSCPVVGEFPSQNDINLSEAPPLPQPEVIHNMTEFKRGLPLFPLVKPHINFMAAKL", "assay": "pre-treatment with IDE inhibitor followed by amylin challenge, serum Aβ", "format": "in vivo", "details": "Tg2576 mice pre-treated with 1-10 phenonthrolin, then amylin challenge", "method": "Tg2576 mice were used for the amylin challenge test. The mice received blood draws before any treatment. Then the mice had intraperitoneally injection (i.p) of PBS, AC253 (amylin receptor antagonist) or 1,10-phenonthrolin (IDE inhibitor) and received another blood draw 24 hrs post the treatment followed by i.p amylin (20 mg/kg). The final blood draw was conducted after 24 hrs post i.p amylin. Serum Aβ1-40 (5A) and Aβ1-42 (5B) were measured by using the ELISA assays. The levels of serum Aβ1-40 and Aβ1-42 at pre-injection of amylin were treated as 1 s, and the relative fold increases with different treatments were calculated and compared with the pre-injection level by using two-way ANOVA. P values for statistical significance are shown.\nAs amylin and Aβ are degraded by the same protease, IDE, we next pre-treated the Tg2576 mice with 1-10 phenonthrolin, a metalloprotease inhibitor to inhibit the activity of IDE, followed by the amylin challenge. It was next tested whether CTR/RAMP3 and IDE form a complex in this process to regulate Aβ in the brain. […] Another experiment with IDE immunoprecipitation and then RAMP3 western blot also illustrated the complex."}, "[2]": {"system": "plasma Aβ1-40 and Aβ1-42", "assay": "pramlintide challenge in two human subjects, plasma Aβ1-40 and Aβ1-42", "format": "in vivo", "details": "pramlintide 60 mcg s.c.", "method": "(§1) Subcutaneous injections of one dose of pramlintide (60 mcg) was performed in two subjects followed in the research registry of the BU ADC, one control and one probable Alzheimer's disease. Blood was drawn to collect plasma samples before the injection and at 5, 30, 60 and 180 minutes after the injection. Vital signs and blood glucose were monitored at these time points and prior to discharge of the subject from the facility. One hour after the injection, the subjects were offered a standard meal. Plasma Aβ1-40 and Aβ1-42 were measured (Table 2). […] The human results provided herein are encouraging, in part, because the dose of pramlintide (60 mcg) used was only moderate."}, "[3]": {"assay": "blood (stick) glucose monitored after pramlintide injection in two human subjects", "format": "in vivo", "details": "pramlintide 60 mcg s.c.", "method": "as §1"}, "[4]": {"system": "mouse models", "assay": "daily dosing in mouse models, memory functions", "format": "in vivo, mice"}},
  "note": "Entries after “also recorded” stand apart in the source; their conditions may differ.",
  "data": [
    {"smiles": "c1cnc2c(c1)ccc1cccnc12", "note": "[1-10 phenonthrolin, 1,10-phenonthrolin]", "values": [
      {"measurement": "surges of serum Aβ at 24 hrs post the peripheral injection of amylin", "setting": "[1]", "result": "completely blocked"}
    ]},
    {"smiles": "CC[C@H](C)[C@H](NC(=O)[C@@H]1CCCN1C(=O)CNC(=O)[C@H](Cc1ccccc1)NC(=O)[C@H](CC(N)=O)NC(=O)[C@H](CC(N)=O)NC(=O)[C@H](CO)NC(=O)[C@H](CO)NC(=O)[C@H](Cc1c[nH]cn1)NC(=O)[C@@H](NC(=O)[C@H](CC(C)C)NC(=O)[C@H](Cc1ccccc1)NC(=O)[C@H](CC(N)=O)NC(=O)[C@H](C)NC(=O)[C@H](CC(C)C)NC(=O)[C@H](CCCNC(=N)N)NC(=O)[C@H](CCC(N)=O)NC(=O)[C@@H](NC(=O)[C@H](C)NC(=O)[C@@H]1CSSC[C@H](NC(=O)[C@@H](N)CCCCN)C(=O)N[C@@H](CC(N)=O)C(=O)N[C@@H]([C@@H](C)O)C(=O)N[C@@H](C)C(=O)N[C@@H]([C@@H](C)O)C(=O)N1)[C@@H](C)O)C(C)C)C(=O)N[C@@H](CC(C)C)C(=O)N1CCC[C@H]1C(=O)N1CCC[C@H]1C(=O)N[C@H](C(=O)N[C@@H](CC(N)=O)C(=O)N[C@H](C(=O)NCC(=O)N[C@@H](CO)C(=O)N[C@@H](CC(N)=O)C(=O)N[C@H](C(=O)N[C@@H](Cc1ccc(O)cc1)C(N)=O)[C@@H](C)O)C(C)C)[C@@H](C)O", "note": "[pramlintide]", "values": [
      {"measurement": "plasma Aβ1-42", "setting": "[2]; AD subject, post 5', pre-injection 27.0", "result": 29.0, "unit": "pg/mL"},
      {"measurement": "plasma Aβ1-40", "setting": "[2]; AD subject, post 5', pre-injection 180.6", "result": 160.8, "unit": "pg/mL"},
      {"measurement": "plasma Aβ1-42", "setting": "[2]; AD subject, post 30', pre-injection 27.0", "result": 31.8, "unit": "pg/mL"},
      {"measurement": "plasma Aβ1-40", "setting": "[2]; AD subject, post 30', pre-injection 180.6", "result": 161.0, "unit": "pg/mL"},
      {"measurement": "plasma Aβ1-42", "setting": "[2]; AD subject, post 60', pre-injection 27.0", "result": 26.6, "unit": "pg/mL"},
      {"measurement": "plasma Aβ1-40", "setting": "[2]; AD subject, post 60', pre-injection 180.6", "result": 129.4, "unit": "pg/mL"},
      {"measurement": "plasma Aβ1-42", "setting": "[2]; AD subject, post 180', pre-injection 27.0", "result": 22.0, "unit": "pg/mL"},
      {"measurement": "plasma Aβ1-40", "setting": "[2]; AD subject, post 180', pre-injection 180.6", "result": 104.6, "unit": "pg/mL"},
      {"measurement": "plasma Aβ1-42", "setting": "[2]; control subject, post 5', pre-injection 29.9", "result": 26.0, "unit": "pg/mL"},
      {"measurement": "plasma Aβ1-40", "setting": "[2]; control subject, post 5', pre-injection 148.4", "result": 178.4, "unit": "pg/mL"},
      {"measurement": "plasma Aβ1-42", "setting": "[2]; control subject, post 30', pre-injection 29.9", "result": 27.5, "unit": "pg/mL"},
      {"measurement": "plasma Aβ1-40", "setting": "[2]; control subject, post 30', pre-injection 148.4", "result": 150.4, "unit": "pg/mL"},
      {"measurement": "plasma Aβ1-42", "setting": "[2]; control subject, post 60', pre-injection 29.9", "result": 21.7, "unit": "pg/mL"},
      {"measurement": "plasma Aβ1-40", "setting": "[2]; control subject, post 60', pre-injection 148.4", "result": 110.5, "unit": "pg/mL"},
      {"measurement": "plasma Aβ1-42", "setting": "[2]; control subject, post 180', pre-injection 29.9", "result": 10.6, "unit": "pg/mL"},
      {"measurement": "plasma Aβ1-40", "setting": "[2]; control subject, post 180', pre-injection 148.4", "result": 100.8, "unit": "pg/mL"},
      {"measurement": "Glucose", "setting": "[3]; AD subject, post 5', pre-injection 85", "result": 91, "unit": "mg/dL"},
      {"measurement": "Glucose", "setting": "[3]; AD subject, post 30', pre-injection 85", "result": 88, "unit": "mg/dL"},
      {"measurement": "Glucose", "setting": "[3]; AD subject, post 60', pre-injection 85, standard meal offered one hour after injection", "result": 135, "unit": "mg/dL"},
      {"measurement": "Glucose", "setting": "[3]; AD subject, post 180', pre-injection 85, standard meal offered one hour after injection", "result": 115, "unit": "mg/dL"},
      {"measurement": "Glucose", "setting": "[3]; control subject, post 5', pre-injection 115", "result": 108, "unit": "mg/dL"},
      {"measurement": "Glucose", "setting": "[3]; control subject, post 30', pre-injection 115", "result": 115, "unit": "mg/dL"},
      {"measurement": "Glucose", "setting": "[3]; control subject, post 60', pre-injection 115, standard meal offered one hour after injection", "result": 114, "unit": "mg/dL"},
      {"measurement": "Glucose", "setting": "[3]; control subject, post 180', pre-injection 115, standard meal offered one hour after injection", "result": 149, "unit": "mg/dL"},
      {"measurement": "memory functions / cognition", "setting": "[4]", "result": "increased memory functions; also recorded: led to cognitive improvements"}
    ]}
  ]
}
